Data reported in US6310095A, “Inhibitors of protein isoprenyl transferases” (University of Pittsburgh, priority 1998, dated 2001).
Counter-ions that a name gives are not always drawn.

These compounds were tested against T1, protein farnesyltransferase (Rattus norvegicus, UniProt Q02293+Q04631) (assay: in vitro inhibition of protein farnesyltransferase (scintillation proximity assay, biotin-K Ras B fragment)). Conditions: at 1 × 10^-5 M.
T1 construct: Rat brain protein farnesyltransferase activity is measured; from tissue; host or cells: rat brain; purified according to Reiss et al., Cell 62:81-88 (1990), steps one through three
Assay type: biochemical
How it was run: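 Scintillation proximity read-out of farnesylation, using a biotinylated K Ras B fragment (0.1 mM final) in place of biotin-lamin. Enzyme purified from rat brain; results given as % inhibition.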
With `CSCC[C@H](NC(=O)c1ccc(CNCC(C)(C)CN(C)C)cc1-c1ccccc1)C(=O)O` [Example 639] the inhibition at 10 µM was 44%. With `COc1cc2c(cc1OC)C(CNCc1ccc(C(=O)N[C@@H](CCSC)C(=O)O)c(-c3ccccc3)c1)=CC(C1CCCCC1)C2` (some centres unmarked) [Example 659] the inhibition at 10 µM was 55%. With `CSCC[C@H](NC(=O)c1ccc(CNCCC2CCCCC2)cc1-c1ccccc1)C(=O)O` [Example 663] the inhibition at 10 µM was 43%. Compound `C=C[C@@H](CC1CCCCC1)NCc1ccc(C(=O)N[C@@H](CCSC)C(=O)O)c(-c2ccccc2)c1` [Example 664] has an inhibition at 10 µM of 75%.

Same assay, conditions: at 1 × 10^-6 M
In the case of `CSCCC(NC(=O)c1ccc(CNC(CO)c2ccccc2)cc1-c1ccccc1)C(=O)O` (centres unmarked) [Example 657], the “% inhibition of farnesyltransferase” value is reported as 32%. In the case of `CSCCC(NC(=O)c1ccc(CNC(CO)c2ccccc2)cc1-c1ccccc1)C(=O)O` (centres unmarked) [Example 658], the “% inhibition of farnesyltransferase” value is reported as 73%.

Same assay, conditions: at 1 × 10^-6 M; read-out: % inhibition of farnesyltransferase
Compound `CSCC[C@H](NC(=O)c1ccc(CNCCC2CCCCC2)cc1-c1ccccc1C)C(=O)O` [Example 607, N-[4-(N-2-cyclohexylethylaminomethyl)-2-(2-methylphenyl)benzoyl]methionine Trifluoroacetate Salt] has an inhibition at 1 µM of 96%. `CSCC[C@H](NC(=O)c1ccc(CN(CCC2CCCCC2)C(=O)N(C)C)cc1-c1ccccc1C)C(=O)O` [Example 610, N-[4-(N-(N,N-dimethylaminocarbonyl)-N-(2-cyclohexylethyl)aminomethyl)-2-(2-methylphenyl)benzoyl]methionine] gave an inhibition at 1 µM of 94%. `CSCC[C@H](NC(=O)c1ccc(CN[C@H](C)CC2CCCCC2)cc1-c1ccccc1C)C(=O)O` [Example 613, N-[4-(3-cyclohexylpropan-2-ylaminomethyl)-2-(2-methylphenyl)benzoyl]methionine] was tested, and the inhibition at 1 µM was 97%. In the case of `CSCC[C@H](NC(=O)c1ccc(CN[C@H](CO)CC2CCCCC2)cc1-c1ccccc1C)C(=O)O` [Example 617, N-[4-(3-cyclohexylpropan-1-ol-2-ylaminomethyl)-2-(2-methylphenyl)benzoyl]methionine], the inhibition at 1 µM is reported as 99%. Work on `CCS(=O)(=O)C[C@H](CC1CCCCC1)NCc1ccc(C(=O)N[C@@H](CCSC)C(=O)O)c(-c2ccccc2C)c1` [Example 620, N-[4-(3-cyclohexyl-1-ethylsulfonylpropan-2-ylaminomethyl)-2-(2-methylphenyl)benzoyl]methionine Lithium Salt] yielded an inhibition at 1 µM of 98%. `CSCC[C@H](NC(=O)c1ccc(CNCCS)cc1-c1ccccc1)C(=O)O` [Example 626] showed an inhibition at 1 µM of 61%. With `CSCC[C@H](NC(=O)c1ccc(CNCCSC(C)(C)C)cc1-c1ccccc1)C(=O)O` [Example 627] the inhibition at 1 µM was 85%. `CSCC[C@H](NC(=O)c1ccc(CNCC(O)CO)cc1-c1ccccc1)C(=O)O` (some centres unmarked) [Example 632] gave an inhibition at 1 µM of 43%. Work on `CSCCC(CO)NCc1ccc(C(=O)N[C@@H](CCSC)C(=O)O)c(-c2ccccc2)c1` (some centres unmarked) [Example 633] yielded an inhibition at 1 µM of 32%. Compound `CSCC[C@H](NC(=O)c1ccc(CNCCN(C(C)C)C(C)C)cc1-c1ccccc1)C(=O)O` [Example 636] has an inhibition at 1 µM of 72%. With `CSCC[C@H](NC(=O)c1ccc(CNCCN2CCCC2)cc1-c1ccccc1)C(=O)O` [Example 641] the inhibition at 1 µM was 34%. `CSCC[C@H](NC(=O)c1ccc(CNc2ccccc2F)cc1-c1ccccc1)C(=O)O` [Example 642] gave an inhibition at 1 µM of 48%. `CSCC[C@H](NC(=O)c1ccc(CNc2ccccc2C(N)=O)cc1-c1ccccc1)C(=O)O` [Example 644] gave an inhibition at 1 µM of 54%. `CSCC[C@H](NC(=O)c1ccc(CNc2ccccc2Oc2ccccc2)cc1-c1ccccc1)C(=O)O` [Example 645] showed an inhibition at 1 µM of 37%. In the case of `CCOC(=O)c1ccc(NCc2ccc(C(=O)N[C@@H](CCSC)C(=O)O)c(-c3ccccc3)c2)cc1` [Example 646], the inhibition at 1 µM is reported as 58%. `CSCC[C@H](NC(=O)c1ccc(CN(CCC#N)Cc2ccccc2)cc1-c1ccccc1)C(=O)O` [Example 649] showed an inhibition at 1 µM of 86%. Work on `COc1ccccc1CNCc1ccc(C(=O)N[C@@H](CCSC)C(=O)O)c(-c2ccccc2)c1` [Example 650] yielded an inhibition at 1 µM of 68%. Compound `COc1cccc(CNCc2ccc(C(=O)N[C@@H](CCSC)C(=O)O)c(-c3ccccc3)c2)c1` [Example 652] has an inhibition at 1 µM of 41%. For `CSCC[C@H](NC(=O)c1ccc(CNCc2ccc(N)cc2)cc1-c1ccccc1)C(=O)O` [Example 653], the inhibition at 1 µM was 62%. In the case of `COc1ccc(CNCc2ccc(C(=O)N[C@@H](CCSC)C(=O)O)c(-c3ccccc3)c2)c(OC)c1` [Example 655], the inhibition at 1 µM is reported as 35%. In the case of `CSCC[C@H](NC(=O)c1ccc(CNCC(O)c2cccc(O)c2)cc1-c1ccccc1)C(=O)O` (some centres unmarked) [Example 661], the inhibition at 1 µM is reported as 45%. Work on `CSCC[C@H](NC(=O)c1ccc(CNC(CO)Cc2ccc(Cl)cc2)cc1-c1ccccc1)C(=O)O` (some centres unmarked) [Example 662] yielded an inhibition at 1 µM of 68%. `CSCC[C@H](NC(=O)c1ccc(CN[C@@H](/C=C\CC(C)C)CC2CCCCC2)cc1-c1ccccc1)C(=O)O` [Example 665] was tested, and the inhibition at 1 µM was 55%. In the case of `CSCC[C@H](NC(=O)c1ccc(CN[C@H](/C=C\CC(C)C)CC2CCCCC2)cc1-c1ccccc1)C(=O)O` [Example 666], the inhibition at 1 µM is reported as 82%. For `CSCC[C@H](NC(=O)c1ccc(CNCCSc2ccccc2)cc1-c1ccccc1)C(=O)O` [Example 667], the inhibition at 1 µM was 83%. `CSCC[C@H](NC(=O)c1ccc(CNc2ccccc2CCO)cc1-c1ccccc1)C(=O)O` [Example 671] gave an inhibition at 1 µM of 36%.

Same assay, conditions: at 1 × 10^-7 M; read-out: % inhibition of farnesyltransferase
`CSCC[C@H](NC(=O)c1ccc(CN[C@@H](CO)C2CCCCC2)cc1-c1ccccc1C)C(=O)O` [Example 604, N-[4-(2-cyclohexylethan-1-ol-2-ylaminomethyl)-2-(2-methylphenyl)benzoyl]methionine Lithium Salt] gave an inhibition at 0.1 µM of 86%. For `CSCC[C@H](NC(=O)c1ccc(CN(CCC2CCCCC2)S(C)(=O)=O)cc1-c1ccccc1C)C(=O)O` [Example 611, N-[4-(N-(2-cyclohexylethyl)-N-methanesulfonylaminomethyl)-2-(2-methylphenyl)benzol]methionine Lithium Salt], the inhibition at 0.1 µM was 95%. With `CCCC[C@H](CC1CCCCC1)NCc1ccc(C(=O)N[C@@H](CCSC)C(=O)O)c(-c2ccccc2C)c1` [Example 615, N-[4-(6-cyclohexylhexan-5-ylaminomethyl)-2-(2-methylphenyl)benzoyl]methionine Lithium Salt] the inhibition at 0.1 µM was 94%. `CSCC[C@H](NC(=O)c1ccc(CN[C@@H](CO)CC2CCCCC2)cc1-c1ccccc1C)C(=O)O` [Example 618, N-[4-(3-cyclohexylpropan-1-ol-2-ylaminomethyl)-2-(2-methylphenyl)benzoyl]methionine Trifluoroacetate Salt] showed an inhibition at 0.1 µM of 89%. For `CCS(=O)(=O)C[C@H](CC1CCCCC1)NCc1ccc(C(=O)N[C@@H](CCS(C)(=O)=O)C(=O)O)c(-c2ccccc2C)c1` [Example 621, N-[4-(3-cyclohexyl-1-ethylsulfonylpropan-2-ylaminomethyl)-2-(2-methylphenyl)benzoyl]-2-amino-4-methanesulfonylbutanoic acid Lithium Salt], the inhibition at 0.1 µM was 98%. Compound `CSCC[C@H](NC(=O)c1ccc(CN[C@H](CSC(C)(C)C)CC2CCCCC2)cc1-c1ccccc1C)C(=O)O` [Example 622, N-[4-(3-cyclohexyl-1-t-butylthiopropan-2-ylaminomethyl)-2-(2-methylphenyl)benzoyl]methionine Lithium Salt] has an inhibition at 0.1 µM of 95%. `CSCC[C@H](NC(=O)c1ccc(CN[C@H](CSc2ccccc2)CC2CCCCC2)cc1-c1ccccc1C)C(=O)O` [Example 623, N-[4-(3-cyclohexyl-1-phenylthiopropan-2-ylaminomethyl)-2-(2-methylphenyl)benzoyl]methionine Lithium Salt] was tested, and the inhibition at 0.1 µM was 96%.

Same assay, conditions: at 1 × 10^-8 M
In the case of `CCSC[C@H](CC1CCCCC1)OCc1ccc(C(=O)N[C@@H](CCSC)C(=O)O)c(-c2ccccc2C)c1` [Example 606], the “% inhibition of farnesyltransferase” value is reported as 93%.

Same assay, conditions: at 1 × 10^-8 M; read-out: % inhibition of farnesyltransferase
For `CSCC[C@H](NC(=O)c1ccc(CN(CCC2CCCCC2)S(=O)(=O)c2ccccc2)cc1-c1ccccc1C)C(=O)O` [Example 612, N-[4-(N-benzenenesulfonyl-N-(2-cyclohexylethyl)aminomethyl)-2-(2-methylphenyl)benzoyl]methionine Lithium Salt], the inhibition at 0.01 µM was 96%. Compound `CC[C@H](CC1CCCCC1)NCc1ccc(C(=O)N[C@@H](CCSC)C(=O)O)c(-c2ccccc2C)c1` [Example 614, N-[4-(4-cyclohexylbutan-3-ylaminomethyl)-2-(2-methylphenyl)benzoyl]methionine Lithium Salt] has an inhibition at 0.01 µM of 92%. `C=C[C@H](CC1CCCCC1)NCc1ccc(C(=O)N[C@@H](CCSC)C(=O)O)c(-c2ccccc2C)c1` [Example 619, N-[4-(2-cyclohexylprop-1-en-2-ylaminomethyl)-2-(2-methylphenyl)benzoyl]methionine Lithium Salt] was tested, and the inhibition at 0.01 µM was 95%.

Same assay, conditions: read-out: % inhibition of farnesyltransferase
In the case of `CSCC[C@H](NC(=O)c1ccc(CN(CCC2CCCCC2)Cc2ccccc2)cc1-c1ccccc1C)C(=O)O` [Example 605, N-[4-(N-benzyl-N-(2-cyclohexylethyl)aminomethyl)-2-(2-methylphenyl)benzoyl]methionine Lithium Salt], the inhibition at 0.01 µM is reported as 68%. With `CSCC[C@H](NC(=O)c1ccc(CN(C)CCC2CCCCC2)cc1-c1ccccc1C)C(=O)O` [Example 608, N-[4-(N-(2-cyclohexylethyl)-N-methylaminomethyl)-2-(2-methylphenyl)benzoyl]methionine Lithium Salt] the inhibition at 0.01 µM was 91%. With `CSCC[C@H](NC(=O)c1ccc(CN(CCC2CCCCC2)C(C)=O)cc1-c1ccccc1C)C(=O)O` [Example 609, N-[4-(N-acetyl-N-(2-cyclohexylethyl)aminomethyl)-2-(2-methylphenyl)benzoyl]methionine Lithium Salt] the inhibition at 0.1 µM was 95%. In the case of `CSCC[C@H](NC(=O)c1ccc(CNC(CC2CCCCC2)C2CCCCC2)cc1-c1ccccc1C)C(=O)O` (some centres unmarked) [Example 616, N-[4-(1,2-dicyclohexylethylaminomethyl)-2-(2-methylphenyl)benzoyl]methionine Lithium Salt], the inhibition at 0.1 µM is reported as 95%.
